Reference: publication PMC4180818 (Metabolic brain disease, 2013)

Target: human glutamine synthetase (Homo sapiens, UniProt P15104)
Assay: coupled pyruvate kinase/lactate dehydrogenase NADH assay
Type: biochemical

Chain of human glutamine synthetase (P15104 2-373): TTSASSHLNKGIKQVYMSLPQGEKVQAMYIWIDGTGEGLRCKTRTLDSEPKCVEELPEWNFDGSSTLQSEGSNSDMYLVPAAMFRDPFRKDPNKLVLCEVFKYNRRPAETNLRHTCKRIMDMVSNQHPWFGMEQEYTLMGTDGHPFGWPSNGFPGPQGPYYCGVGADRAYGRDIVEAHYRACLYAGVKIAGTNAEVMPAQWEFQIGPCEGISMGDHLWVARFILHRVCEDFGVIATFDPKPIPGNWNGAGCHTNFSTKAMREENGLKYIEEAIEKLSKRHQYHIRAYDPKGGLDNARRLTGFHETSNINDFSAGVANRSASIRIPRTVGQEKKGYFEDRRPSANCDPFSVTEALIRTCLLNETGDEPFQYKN

## CS(=N)(=O)CCC(N)C(=O)O (mixture of isomers) [MSO, L-methionine-S,R-sulfoximine]
  Ki: 1190 µM
